“Also recorded” adds a separate entry of the source.
Key:
[1] = Effect of 1064 nm light on the photosensitizer (recovery, group II); assay type: in vivo, C57 mice; settings: injected 24 and 48 h before irradiation
Procedure: (§1) SiNc incorporated into DPPC liposomes was injected at a dose of 1 mg/kg body weight into the caudal vein of C57 mice bearing the B16 pigmented melanoma. Three groups of mice (three mice per each time point) were used: (a) unirradiated control mice; (b) mice injected immediately after irradiation with the Nd: YAG laser (1064 nm, one pulse, 650 mJ); (c) mice injected at 24 h or 48 h before irradiation under the same conditions indicated for group (b). In all cases, at 3, 24 and 48 h after injection of isoBO--SiNc (groups a and b) and immediately after irradiation (group c), the mice were sacrificed by prolonged exposure to ether vapor. The blood was rapidly taken, centrifuged at 3000 rpm for 10 min. to remove the erythrocytes, and the serum was analyzed for its isoBO--SiNc content by a spectrophotofluorimetric procedure (4) using 690 nm as the excitation wavelength. The liver, tumor and peritumoral skin (namely an area with a 0.5 cm width surrounding the tumor) were excised and their isoBO--SiNc content was determined spectrophotofluorimetrically as previously described (4,5).
II = mice injected at 24 and 48 h before irradiation (1064 nm, 650 mJ, 1
Special attention was paid to the recoveries obtained at 24 h and 48 h after injection since these time intervals correspond with the maximum isoBO--SiNc accumulation in a variety of transplanted tumors and are generally used for PDT. […]

B16 pigmented melanoma = assay: Photodynamic therapy and high peak power irradiation studies: tumour regrowth of B16 pigmented melanoma; assay type: in vivo, C57 mice
Procedure: Female C57/BL6 and BALB/C mice (18-20 g body weight) obtained from Harlan Spraque Dawley, Inc. (Indianapolis, Ind.) were used as experimental models. B16 pigmented melanoma (the B16 cell line was obtained from American Type Culture Collection) was subcutaneously transplanted into the upper flank by injecting […] of a sterile cell suspension in PBS. The cell line was cultured in Dulbecco's modified minimal essential medium supplemented with 10% fetal calf serum. The cell culture was maintained at 37° C. in a humidified atmosphere of 5% CO2 in air. All of our experiments were performed at 5-7 days after injection of B16 melanoma cells, when the tumor volume was in the range of 0.02-0.04 cm^3 with an external diameter of 0.4-0.6 cm and a depth of 0.15-0.2 cm.
When the tumor diameter was in the range of 0.4-0.6 cm, groups of 7-8 B16 melanoma bearing mice were irradiated with 1064 nm light from the Nd: YAG laser at 500 or 650 mJ per pulse (HPP). In one group of mice at 24 h after isoBO--SiNc injection (1 mg/kg) the tumor area was exposed to 774 nm light from a dye laser which was operated at a fluence rate of 300 mW/cm^2 for a total light fluence of 520 J/cm^2. This PDT treatment was performed, in other two groups, also before or after the tumors had been exposed to 1064 nm light from the Nd: YAG (650 mJ). Another group of 8 mice was treated with PDT (isoBO--SiNc 1 mg/kg, 300 mW/cm^2, 520 J/cm^2) preceded by HPP (1064 nm, 650 mJ) and retreated in the same way 10 days later, when the tumors were regrowing.
In a parallel set of experiments, a sequential treatment involving HPP and PDT (with the same irradiation conditions mentioned above) was followed by an immediate further irradiation at 550 mW/cm^2 and 200 j/cm^2 from the same 774 nm light. For each group the effectiveness of the treatment was evaluated by comparing the rate of tumor growth of the irradiated mice with that observed for control mice transplanted simultaneously with the phototreated mice but not exposed to light and not injected with isoBO--SiNc. The tumor size was measured daily by means of a caliper. Individual tumor volumes (V) were calculated by assuming a hemiellipsoidal structure for the tumor nodule and measuring the two perpendicular axes (a and b) and the height (c). Application of the relationship V 2/3(a/2×b/2×c) provided the tumor volume. The time to reach a defined tumor volume was calculated for the individual tumors.
Special attention was paid to the recoveries obtained at 24 h and 48 h after injection since these time intervals correspond with the maximum isoBO--SiNc accumulation in a variety of transplanted tumors and are generally used for PDT. The data obtained for control mice were in good agreement with those previously found in our laboratory. […] On the basis of the above described findings, a PDT experiment (776 nm; 300 mW/cm^2 -520 J/cm^2) was performed at 24 h post injection, immediately after HPP irradiation with a single 650 mJ pulse of 1064 nm light.
HPP: High Peak Power irradiation from Nd: YAG laser, 1064 nm, […] per
PDT: Photodynamic Therapy from dye laser, 774 nm, 300 mW/cm^2, 520
PTT: Photothermal Therapy from dye laser, 774 nm, 550 mW/cm^2, 200
*Difference between the growth time for treated and control mice. The
growth time is the time interval for the tumour to grow to a volume of 1
cm^3 from the size at the time of irradiation (0.03-0.04 cm^3).
The growth time of control mice was 11 days.

[2] = parameters: species or system C57 mice; settings: mouse, in vivo, iv, 1 mg/kg, 3 h
Procedure: as §1
The pharmacokinetic behavior of systematically injected isoBO--SiNc in unirradiated and 1064 nm-irradiated (650 mJ, one pulse) C57 mice is shown in Table 1.
C = control mice (mice not irradiated) […]
Values ± SD; three mice were independently analyzed each time, with th
exception of I where six mice were analyzed.

Amelanotic melanoma = settings: cited from earlier work
pigmented melanoma = settings: very virulent pigmented melanoma; cited from earlier work

Recovery of isoBO-SiNc from selected tissues: peritumoural skin [2] | Compound | effect of 1064 nm irradiation on recovery / integrity of the photosensitizer [1] | delay of tumor regrowth (B16 pigmented melanoma; 1 mg/kg, PDT 300 mW/cm^2, 520 J/cm^2, 776 nm diode laser immediately after 1064 nm irradiation) | Mice tumour free time (B16 pigmented melanoma; HPP + PDT) | Mice tumour free time (B16 pigmented melanoma; HPP + PDT + HPP + PDT (retreated 10 days later)) | Regrowth delay (B16 pigmented melanoma; HPP + PDT + HPP + PDT (retreated 10 days later), growth time to 1 cm^3 vs control mice) | Mice tumour free time (B16 pigmented melanoma; HPP + PDT + PTT (774 nm, 550 mW/cm^2, 200 J/cm^2)) | Regrowth delay (B16 pigmented melanoma; HPP + PDT + PTT, growth time to 1 cm^3 vs control mice) | Regrowth delay (B16 pigmented melanoma; HPP + PDT, growth time to 1 cm^3 vs control mice) | tumor response to combined HPP and PDT (B16 pigmented melanoma; HPP irradiation followed by PDT) | Mice tumour free time (B16 pigmented melanoma; PDT (774 nm, 300 mW/cm^2, 520 J/cm^2), 1 mg/kg) | animals essentially tumor-free post-PDT (B16 pigmented melanoma; PDT (776 nm; 300 mW/cm^2, 520 J/cm^2) 24 h post injection, immediately after HPP 650 mJ pulse, FIG. 3) | Mice tumour free time (B16 pigmented melanoma; PDT + HPP (1064 nm Nd:YAG, 650 mJ per pulse)) | Regrowth delay (B16 pigmented melanoma; PDT + HPP, growth time to 1 cm^3 vs control mice) | delay of tumor regrowth (B16 pigmented melanoma; PDT under identical conditions without the pre-irradiation) | Regrowth delay (B16 pigmented melanoma; PDT, difference in growth time to 1 cm^3 between treated and control mice) | response of amelanotic melanoma to Photofrin-PDT (Amelanotic melanoma) | response of pigmented melanoma to PDT (pigmented melanoma)
0.44 ± 0.1 μg of drug per g | CCCCCCCCCCCCCCCCCC[Si]([O-])(CC(C)C)CC(C)C.CCCCCCCCCCCCCCCCCC[Si]([O-])(CC(C)C)CC(C)C.[Si+4].c1ccc2cc3c(cc2c1)-c1nc2nc(nc4[n-]c(nc5[n-]c(nc-3n1)c1cc3ccccc3cc51)c1cc3ccccc3cc41)-c1cc3ccccc3cc1-2 [isoBO-SiNc, Bis(di-isobutyloctadecylsiloxy)-2,3-naphthalocyanato silicon] | no appreciable effect on the recovery; also recorded: not affected by 1064 nm light | 11 days | 9 days | 21 days | 27 days | 22 days | 34.6 days | 16.4 days | remarkable retardation in tumor growth rate; also recorded: significant tumor response which is markedly larger than that obtained with either treatment alone | 2 days | ~11 days | 2 days | 7 days | 4 days | 6.3 days | – | –
– | Photofrin | – | – | – | – | – | – | – | – | – | – | – | – | – | – | – | successfully treated | poorly responsive
